Results on five compounds are retold here after US7067538B2, “MCP-1 receptor antagonists and methods of use thereof” (Warner-Lambert Company, LLC, priority 2002, dated 2006).

Where two headings read alike, the source gives them in different places. Bounds are passed on as bounds.

Series [1] is described as follows: Pharmacokinetics in rats after intravenous infusion and oral gavage. In kind it is in vivo. The procedure: The compound of Example 4, 3-[Bis-(4-chloro-phenyl)-methanesulfonyl]-1,1,1-trifluoro-propan-2-one, was administered to rats via a 5-minute intravenous infusion at 0.175 mg/mL (solution in 5% DMA/95% Tris base (50 mM in water)) and oral gavage at 0.35 mg/mL (suspension in 5% (w/v) PEG 200/95% (w/v) methylcellulose (0.5%)). Following intravenous administration of a 0.5 mg/kg dose to rats, the systemic clearance was about 0.06 mL/min/kg and the volume of distribution was about 0.2 L/kg. […] Following a 1 mg/kg oral dose, the compound of Example 4 was absorbed in rats with mean peak plasma levels of 6 μg/mL occurring approximately 2.5 hours after dosing. Based on the ratio of the dose-normalized area under the plasma concentration-time curve from 0 to 96 hour after oral and intravenous doses, the absolute oral bioavailability averaged about 100%. […]

Series [2] can be described thus: Plasma stability in rat plasma and acidified rat plasma (LC/MS). The note with it: 1 μg/mL, 1 hour at room temperature or 37° C. In kind it is in vitro ADME. The procedure: Plasma stability studies were conducted on (Di-p-tolyl-methanesulfonyl)-acetic acid methyl ester and [bis-(4-chloro-phenyl)-methanesulfonyl]-acetic acid methyl ester. Briefly, these compounds (at a final concentration of 1 μg/mL) were separately inclubated in rat plasma and acidified rat plasma for 1 hour at room temperature or 37° C.

Series [3] deals with MCP-1 response in THP-1 cells. The series can be described thus: Calcium flux in THP-1 cells stimulated with human MCP-1 (FLIPR). The format is cell-based. The note with it: read-out: Calcium Flux IC50. The procedure: Compounds of were evaluated for their effect on calcium flux using methodology known in the art, e.g., Neote et al., Cell 1993, 72:415–425. Briefly, THP-1 cells were incubated with the fluorescence dye FLUO-4 for 1 hour, the cells were washed after this loading period, resuspended in HANKs buffer, and loaded into a 384-well plate. The cells were then incubated in the presence of a compound of Example 1–12, 14, 18, 22–23, 27–28, 30, or [bis-(4-chloro-phenyl)-methanesulfonyl]-acetic acid methyl ester. After a 30-minute incubation period, the cells were stimulated with 33 nM human MCP-1 and the calcium flux response recorded and quantified with a FLIPR^384® (384-well Fluorometric Imaging Plate Reader) ([…], Sunnyvale, Calif.). The IC50's (μM) of the inhibition of the maximal MCP-1 response are set out in Table 1.
In general terms: A change in cytosolic calcium serves as a functional read-out for many receptors and channels.

Series [4] addresses T1, MCP-1 receptor (300-19 cell membranes) (Homo sapiens, UniProt P41597).
T1 construct: host or cells: 300-19 cells (membrane preparation)
The series can be described thus: Inhibition of binding of 125I-MCP-1 to 300-19 cell membranes. The method, then:
Compounds were also assayed for their ability to inhibit the binding of radiolabeled MCP-1 to cell membranes. The materials and methods are set out below.
Membrane Preparation. 300-19 cells were harvested by centrifugation and washed with PBS (Dulbecco's phosphate-buffered saline w/o Ca and Mg). Cells were frozen at −80° C. overnight then resuspensed in ice cold lysis buffer (5 mM HEPES, 2 mM EDTA, 10 μg/mL of leupeptin, aprotinin, and chymostatin, and 200 μg/mL PMSF). The cell suspension was centrifuged at 1,000 rpm for 10 minutes and the supernatant was transferred and centrifuged at 14,000 rpm for 45 minutes at 4° C. then discarded. The resulting pellet was resuspended in stock buffer (10 mM HEPES, 300 mM sucrose, 20 μg/mL of leupeptin, aprotinin, and chymostatin, and 200 μg/mL PMSF), aliquoted, and frozen at −80° C. until use. Typical binding assays used 1.0 μg/well protein.
Prepared membranes were resuspended in binding buffer (50 mM Tris, 10 mM MgCl2, 1 mM EDTA pH 7.4) at 10 μg/mL protein. Membranes (1.0 μg/well) were incubated with ^125I-MCP-1 (0.15 nM) in the absence or presence of unlabeled chemokine (465 nM) or a compound of Examples 1–11, 14, 16, 19, 22, 27–30, 33–34, or [bis-(4-chloro-phenyl)-methanesulfonyl]-acetic acid methyl ester (0.001 μM–40 μM) for 3 hours at room temperature in a 96-well plate (total volume 250 μL). The reaction was terminated by filtration using a 96-well plate harvester (Packard Filtermate 196 Harvester). Filters (Packard GF/C) were prewet with 0.3% PEI containing 0.5% BSA and washed 5 times with wash buffer (DPBS, 0.3 MnCl2, and 0.25% BSA) prior to reaction termination. After terminating the reaction, filters were washed 6 times with wash buffer, and allowed to dry overnight. Scintillation fluid (Packard's Micro Scint 20) was added to each well and radioactivity bound was determined by liquid scintillation spectrometry. Nonspecific binding was determined in the presence of 465 nM unlabeled MCP-1. The IC50's (μM) of the inhibition of the binding of the iodinated MCP-1 are set out in Table 2.

Setting [5] is: 0.5 h, THP-1 cells, 30-minute incubation, stimulated with 33 nM human MCP-1, inhibition of the maximal MCP-1 response.
Setting [6] is: 300-19 cell membranes 1.0 μg/well, 125I-MCP-1 0.15 nM, 3 hours at room temperature, read-out: IC50 of the inhibition of the binding of the iodinated MCP-1.

T1 sequence (P41597 whole entry): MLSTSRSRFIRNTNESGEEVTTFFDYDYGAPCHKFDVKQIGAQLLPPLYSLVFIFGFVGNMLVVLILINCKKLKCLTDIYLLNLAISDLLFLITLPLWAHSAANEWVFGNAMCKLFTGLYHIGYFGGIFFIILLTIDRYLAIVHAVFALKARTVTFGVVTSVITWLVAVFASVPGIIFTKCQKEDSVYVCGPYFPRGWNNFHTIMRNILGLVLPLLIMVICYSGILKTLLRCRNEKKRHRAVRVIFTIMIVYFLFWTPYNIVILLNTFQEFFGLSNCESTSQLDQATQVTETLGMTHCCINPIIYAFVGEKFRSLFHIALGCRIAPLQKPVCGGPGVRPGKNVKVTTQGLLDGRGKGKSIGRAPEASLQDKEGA

On to `COC(=O)CS(=O)(=O)C(c1ccc(C)cc1)c1ccc(C)cc1` [(Di-p-tolyl-methanesulfonyl)-acetic acid methyl ester, reference compound], for which, in series [1] (rats, 1 mg/kg intravenous infusion or 5 mg/kg oral gavage, LC/MS), the “plasma concentrations after intravenous or oral administration” value was “below the lower limit of quantitation”. In addition, the “compound remaining after incubation in plasma” value in series [2] was “below the lower limit of quantitation”.
Broadly, the melting point is the temperature, or range, at which the solid turns liquid. As a reminder, the IC50 is the concentration that inhibits the measured activity by half. As usually defined, the bioavailability is the share of a dose that reaches the circulation, judged against a reference dose that is usually intravenous. A high value points to much systemic uptake. For orientation: half-life means the time needed for the level to fall by half in the phase considered. Low readings indicate fast loss, high ones slow loss. `O=C(CF)CS(=O)(=O)C(c1ccc(Cl)cc1)c1ccc(Cl)cc1` [Example 7, 3-[Bis-(4-chloro-phenyl)-methanesulfonyl]-1-fluoro-propan-2-one] returned a melting point of 55 to 58 °C. The IC50 in series [3] (setting [5]) is 423 nM. Besides, in series [1] (rat, in vivo), the bioavailability is under 10% and the half-life was 1.5 h. In addition, the “decrease in concentrations within 2 hours after dosing” value in series [1] (rat, in vivo, iv, 1 mg/kg) is over 100 fold. In addition, in series [1] (rat, in vivo, po, 5 mg/kg), the “mean peak plasma levels” value came to 359 ng/mL, the “time for which plasma concentrations were measurable after dosing” value was 4 h and the “time of peak plasma levels after dosing” value was determined as 15 min. In series [4] (setting [6]), the IC50 turned out to be 101 nM.
Take `O=C(CS(=O)(=O)C(c1ccc(Cl)cc1)c1ccc(Cl)cc1)C(F)F` [Example 8, 3-[Bis-(4-chloro-phenyl)-methanesulfonyl]-1,1-difluoro-propan-2-one]: the IC50 in series [3] (setting [5]) came to 108 nM. In series [1] (rat, in vivo), the bioavailability is about 43% and the half-life was 7 h. For the same compound, in series [1] (rat, in vivo, iv, 1 mg/kg), the Vd worked out at 0.28 L/kg and the clearance is 0.75 mL/min/kg. In addition, in series [1] (rat, in vivo, po, 5 mg/kg), the “mean peak plasma levels” value is “about 7 μg/mL” and the “time of peak plasma levels after dosing” value was in the range of 30 to 60 min. The IC50 in series [4] (setting [6]) was 88 nM.
`O=C(CS(=O)(=O)C(c1ccc(Cl)cc1)c1ccc(Cl)cc1)C(F)(F)F` [Example 4, 3-[Bis-(4-chloro-phenyl)-methanesulfonyl]-1,1,1-trifluoro-propan-2-one] gave a melting point of 60 to 62 °C. Also, in series [3] (setting [5]), the IC50 worked out at 495 nM. In series [1] (rat, in vivo), this compound showed a bioavailability of about 100% and a half-life of about 47 h. In series [1] (rat, in vivo, iv, 0.5 mg/kg), this compound showed a Vd of about 0.2 L/kg and a clearance of about 0.06 mL/min/kg. Further, in series [1] (rat, in vivo, po, 1 mg/kg), the “mean peak plasma levels” value worked out at 6000 ng/mL and the “time of peak plasma levels after dosing” value was “approximately 2.5 hours”. Moreover, the IC50 in series [4] (setting [6]) worked out at 175 nM.
Consider `COC(=O)CS(=O)(=O)C(c1ccc(Cl)cc1)c1ccc(Cl)cc1` [[Bis-(4-chloro-phenyl)-methanesulfonyl]-acetic acid methyl ester, reference compound], for which the IC50 in series [3] (Homo sapiens, THP-1, 0.5 h) stood at 150 nM; in series [4], 7320 nM. Also, in series [2], the “compound remaining after incubation in plasma” value is given as “below the lower limit of quantitation”.
